# Data as given in patent publication US5663196A, “Methods for treating neoplastic disorders” (Boston University, priority 1993, dated 1997).
# Read-outs that look alike come from different tables or passages of the source.
# How the values were obtained:
# [1] = system: BW8767 cells (BW resistant mutant); assay: Trypan Blue cell viability, BW8767; format: cell-based; conditions: Mus musculus, read-out: Trypan Blue Cell Viability (%)
# Excerpt: (§1) 1) The Trypan Blue Dye Exclusion Test for monitoring ceil viability as described by Phillips, H. J., in Tissue Culture Methods and Applications; Kruse, P. F., Jr., Patterson, M. K., Eds.; Academic Press, New York, 1973, 406, and by Wu, Y. W., Chik, L. L., Knazek, R. A. Cancer Research 1989, 49, 3754. The results of this assay are expressed as a percentage of viable cells:
# (§2) [% viable cells]=[no. of alive cells]/[total no. of cells]×100
# (§3) where the total no. cells=dead cells+alive cells. The results are compared directly with an untreated control, which typically show a three-to-four-fold increase for cancer cells, and a two-fold increase for normal cells. Treatments resulting in [% viable cells] of <30% are considered cytotoxic. Therefore, the trypan blue dye exclusion test was used to assess the number of dead and alive cells using various cell lines upon treatment with the crude and purified agent. This test provides a simple clue to the acute or late onset of a cytotoxic response. Readings for this and all other in vitro assays were taken 48 hours after treatment with the unpurified agent, and also […] after treatment for the purified agent. Thus, the trypan blue dye exclusion assay functions to confirm whether or not the cells were viable at the time readings were taken for other bioassays.
# (§4) The final in vitro assays performed with the preferred purified active agent were intended to examine the scope of the activity in the trypan blue assay against a wider range of tumor cell lines (Tables 10 and 11). These cell lines included a […] lymphoma BW8767, a BW mutant which is more resistant than the BW cell lines used in other assays, as evidenced by the results in Tables 10 and 11.
# [2] = system: CT26 colon adenocarcinoma cells; assay: Lung metastases of CT26 in BALB/C mice, 3rd study; format: in vivo; conditions: day 5; 5 μg/g mouse
# Method: The in vivo activity of the active agent was assessed against two tumor cell types injected into mice: CT26 and Ehrlich Ascites (EAT) tumor cell lines. The protocols of the "National Cancer Institute, Drug Research and Development Division of Cancer Treatment, Instruction 14, Screening Data Summary Interpretation and Outline of Current Screen" were followed.
# In a subsequent experiment, mice that had been implanted with CT26 cells as above were treated on day 5 with the solid residue from the evaporation of CsA (100 μg/g mouse), and with the preferred purified active agent 11β,13-dihydrolactucin (5 μg/g mouse).
# [3] = system: C7 cloned T-cells; assay: 3H-Thymidine Incorporation, C7; format: cell-based; conditions: Mus musculus, T-cell, read-out: 3H-Thymidine Incorporation (DNA Synthesis) Inhibition (%)
# Excerpt: (§5) 2) The ^3 H-Thymidine Incorporation Test as described by Ju, S. T., Dorf, M. E. J. Immunol. 1985, 134, 3722. This test was used for monitoring cellular proliferation by monitoring DNA synthesis. The results are expressed as percent ^3 H-thymidine incorporation relative to an untreated control:
# (§6) [% ^3 H-thymidine incorporation]=[cpm agent treated cells]/[cpm
# (§7) where cpm=counts per minute. Treatments resulting in [% ^3 H-thymidine incorporation] of <50% are considered active.
# (§8) The ^3 H-thymidine incorporation assay therefore measures the amount of DNA synthesis when the cells are in the "S" phase of the cell cycle, and is used to assess cell proliferation. Cancer cells, which have a very rapid cell cycle turnover, normally incorporate large amounts of tritium (^3 H) unless inhibited by an exogenous agent. […] While the trypan blue dye exclusion test is an indicator of cell death, the ^3 H-thymidine incorporation test indicates a cytostatic status (not necessarily cytotoxic) of the cell. As previously noted, this latter test was the primary screen used to guide the isolation to the active agent.
# Each of these three fractions were then tested in the trypan blue and ^3 H-thymidine incorporation assays along with the original CsA as a control, against the LS cell line, which was the most sensitive of the cancer lines (Tables 3 and 4). […] The results of the trypan blue and ^3 H-thymidine incorporation assays against the three cell lines are compiled in Tables 5a-5f.
# [4] = system: LK lymphoma cells; assay: Trypan Blue cell viability, LK; format: cell-based; conditions: Mus musculus, read-out: Trypan Blue Cell Viability (%)
# Excerpt: as §1, §2, §3
# With the preferred purified active agent in hand, ^3 H-thymidine incorporation and trypan blue assays were initially performed at different dosages using LK and BW lymphoma ceil lines in order to confirm the activity of the preferred purified active agent, and to bracket the active concentration range for the preferred purified active agent. With a molecular weight of 328, a 1 μg/mL solution corresponds to 3 μM concentration. In addition, the time course of cell viability in the trypan blue assay was also monitored in order to best optimize subsequent assays to ensure that the cells were still viable at the time of measurement, and to ensure a nontoxic response of the cells to the agent. Toxicity of the agent would have been observed as cell death within 2 hours. The trypan blue assays (Table 7), run at 30 μM and 3 μM of purified agent (10 and 1 μg/mL, respectively), indicated excellent cell viability after 24 hours, though with a significant drop in viability after 48 hours at a 30 μM dose of preferred purified active agent. Consequently the results of the in vitro assays employing purified agent were all recorded after 24 hours. In the ^3 H-thymidine incorporation assay (Table 8), dosages ranging from 0.1 to 250 μg/mL were examined.
# [5] = system: RDM-4 cells (type T lymphoma); assay: Trypan Blue cell viability, RDM-4; format: cell-based; conditions: Mus musculus, read-out: Trypan Blue Cell Viability (%)
# Excerpt: as §1, §2, §3, §4
# [6] = system: P815 cells (mastocytoma); assay: 3H-Thymidine Incorporation, P815; format: cell-based; conditions: Mus musculus, read-out: 3H-Thymidine Incorporation (DNA Synthesis) Inhibition (%)
# Excerpt: as §5, §6, §7, §8
# [7] = system: CT26 cells (colon adenocarcinoma); assay: 3H-Thymidine Incorporation, CT26; format: cell-based; conditions: Mus musculus, read-out: 3H-Thymidine Incorporation (DNA Synthesis) Inhibition (%)
# Excerpt: as §5, §6, §7, §8
# [8] = system: RDM-4 cells (type T lymphoma); assay: 3H-Thymidine Incorporation, RDM-4; format: cell-based; conditions: Mus musculus, read-out: 3H-Thymidine Incorporation (DNA Synthesis) Inhibition (%)
# Excerpt: as §5, §6, §7, §8, §4
# [9] = system: BW lymphoma cells; assay: 35S-Methionine Incorporation (protein synthesis), BW; format: cell-based; conditions: Mus musculus; for activity at 1 µg/mL: 1 μg/mL; for activity at 10 µg/mL: 10 μg/mL
# Excerpt: 3) ^35 S-Methionine Incorporation Test as described by Sorenson, C. M., Barry, M. A., Eastman, A. J. Natl. Canc. Inst. 1990, 82, 749. The results are expressed as percent ^35 S-methionine incorporation relative to an untreated control:
# [% ^35 S-methionine incorporation]=[cpm agent treated cells]/[cpm
# where cpm=counts per minute. Treatments resulting in [% ^35 S-methionine incorporation] of <50% are considered active.
# The ^35 S-methionine incorporation test therefore measures protein synthesis. Activity in this bioassay could arise from inhibition of transcription and/or translation.
# In this test, BW and LK lymphoma cells were treated with the preferred purified active agent at 1 μg/mL and 10 μg/mL for comparison with an untreated control. The treated cells were split into two groups, one of which was thoroughly washed to remove the preferred purified active agent prior to incubation with ^35 S-methionine.
# [10] = system: EL-4 cells (type T lymphoma); assay: 3H-Thymidine Incorporation, EL-4; format: cell-based; conditions: Mus musculus, read-out: 3H-Thymidine Incorporation (DNA Synthesis) Inhibition (%)
# Excerpt: as §5, §6, §7, §8
# [11] = system: BW (BW5147) lymphoma cells; assay: 3H-Thymidine Incorporation, BW (BW5147); format: cell-based, mouse
# Excerpt: as §5, §6, §7
# The ^3 H-thymidine incorporation assay therefore measures the amount of DNA synthesis when the cells are in the "S" phase of the cell cycle, and is used to assess cell proliferation. […]
# With the preferred purified active agent in hand, ^3 H-thymidine incorporation and trypan blue assays were initially performed at different dosages using LK and BW lymphoma ceil lines in order to confirm the activity of the preferred purified active agent, and to bracket the active concentration range for the preferred purified active agent. […] In addition, the time course of cell viability in the trypan blue assay was also monitored in order to best optimize subsequent assays to ensure that the cells were still viable at the time of measurement, and to ensure a nontoxic response of the cells to the agent. […] Consequently the results of the in vitro assays employing purified agent were all recorded after 24 hours. […]
smiles,measurement,setting,value
"CC1=C2C(=O)C=C(CO)[C@@H]2[C@H]2OC(=O)[C@@H](C)[C@@H]2[C@@H](O)C1 [11β,13-dihydrolactucin, 3,6-dimethyl-4-hydroxy-9-hydroxymethyl-3,3a,4,5,9a,9b-hexahydroazuleno[4,5-b]furan-2,7-dione]",viability at 0.1 µg/mL,[1],100%
same,viability at 0.5 µg/mL,[1],100%
same,viability at 1 µg/mL,[1],100%
same,viability at 10 µg/mL,[1],100%
same,Number of Metastases (mean ± S.D.),[2],0.33 ± 0.33
same,inhibition at 0.1 µg/mL,[3]; 0.1 μg/mL,100%
same,inhibition at 0.5 µg/mL,[3]; 0.5 μg/mL,100%
same,inhibition at 1 µg/mL,[3]; 1.0 μg/mL,100%
same,inhibition at 10 µg/mL,[3]; 10 μg/mL,75%
same,viability at 1 µg/mL,[4]; 2 h,100%
same,viability at 10 µg/mL,[4]; 2 h,100%
same,viability at 1 µg/mL,[4]; 5 h,100%
same,viability at 10 µg/mL,[4]; 5 h,100%
same,viability at 1 µg/mL,[4]; 12 h,100%
same,viability at 10 µg/mL,[4]; 12 h,100%
same,viability at 1 µg/mL,[4]; 24 h,100%
same,viability at 10 µg/mL,[4]; 24 h,85%
same,viability at 1 µg/mL,[4]; 36 h,90%
same,viability at 10 µg/mL,[4]; 36 h,72%
same,viability at 1 µg/mL,[4]; 48 h,90%
same,viability at 10 µg/mL,[4]; 48 h,60%
same,viability at 0.1 µg/mL,[5],100%
same,viability at 0.5 µg/mL,[5],100%
same,viability at 1 µg/mL,[5],100%
same,viability at 10 µg/mL,[5],90%
same,inhibition at 0.1 µg/mL,[6]; 0.1 μg/mL,100%
same,inhibition at 0.5 µg/mL,[6]; 0.5 μg/mL,100%
same,inhibition at 1 µg/mL,[6]; 1.0 μg/mL,50%
same,inhibition at 10 µg/mL,[6]; 10 μg/mL,36%
same,inhibition at 0.1 µg/mL,[7]; 0.1 μg/mL,100%
same,inhibition at 0.5 µg/mL,[7]; 0.5 μg/mL,50%
same,inhibition at 1 µg/mL,[7]; 1.0 μg/mL,5%
same,inhibition at 10 µg/mL,[7]; 10 μg/mL,1%
same,inhibition at 0.1 µg/mL,[8]; 0.1 μg/mL,100%
same,inhibition at 0.5 µg/mL,[8]; 0.5 μg/mL,100%
same,inhibition at 1 µg/mL,[8]; 1.0 μg/mL,80%
same,inhibition at 10 µg/mL,[8]; 10 μg/mL,60%
same,activity at 1 µg/mL,[9]; BW (washed),100%
same,activity at 10 µg/mL,[9]; BW (washed),100%
same,activity at 1 µg/mL,"[9]; BW, unwashed",10%
same,activity at 10 µg/mL,"[9]; BW, unwashed",2%
same,inhibition at 0.1 µg/mL,"[10]; EL4, 0.1 μg/mL",100%
same,inhibition at 0.5 µg/mL,"[10]; EL4, 0.5 μg/mL",100%
same,inhibition at 1 µg/mL,"[10]; EL4, 1.0 μg/mL",78%
same,inhibition at 10 µg/mL,"[10]; EL4, 10 μg/mL",38%
same,"ED50, 3H-thymidine incorporation",[11],micromolar range
